# pKi: −log10 of the molar value. Like-named read-outs stand apart in the source and are kept apart here.
# Columns and labels:
# ec308 SHV-5 [1] = assay: Aztreonam potentiation (MPC@4), strain ec308 SHV-5; conditions: minimum BLI concentration inhibiting growth with aztreonam 4 μg/mL; tested up to 40 μg/mL
# KP1005 CTX-M-14 [2] = assay: Tigemonam potentiation (MPC@4), strain KP1005 CTX-M-14
# KP1004 KPC-2 [3] = assay: Aztreonam potentiation (MPC@4), strain KP1004 KPC-2
# KP1009 CTX-M-15 [4] = assay: Aztreonam potentiation (MPC@4), strain KP1009 CTX-M-15; conditions: minimum BLI concentration inhibiting growth with aztreonam 4 μg/mL; tested up to 40 μg/mL
# AB1054 OXA-23 = assay: Meropenem potentiation (MPC@8), strain AB1054 OXA-23; assay type: cell-based, Acinetobacter baumannii
# KP1004 KPC-2 [5] = assay: Biapenem potentiation (MPC@1), strain KP1004 KPC-2; assay type: cell-based; conditions: minimum BLI concentration inhibiting growth with biapenem 1 μg/mL; tested up to 40 μg/mL
# Protocol: (§1) Biapenem was present in the test medium at 1 μg/mL. […] Table 3 summarizes the BLI potency of biapenem potentiation (MPC@1) for two strains overexpressing class A (KPC) and class D (OXA-48) carbapenemases. Biapenem MIC for each strain is also shown.
# [6] = biological target: purified class A, C and D enzymes (β-lactamases) (Enterobacter cloacae, UniProt P05364); assay: biochemical; assay type: biochemical
# [7] = biological target: purified class A, C and D enzymes (β-lactamases) (Escherichia coli, UniProt Q9L5C7); assay: biochemical; assay type: biochemical
# [8] = biological target: T1, purified class A, C and D enzymes (β-lactamases) (Pseudomonas aeruginosa, UniProt P24735); assay: biochemical; assay type: biochemical
# T1 construct: rows headed: Ki (Pa-AmpC, NCF), uM; other: purified Pa-AmpC; nitrocefin (NCF) as reporter substrate
# [9] = biological target: purified class A, C and D enzymes (β-lactamases) (Klebsiella pneumoniae, UniProt Q9F663); assay: biochemical; assay type: biochemical
# [10] = biological target: purified class A, C and D enzymes (β-lactamases) (Klebsiella pneumoniae, UniProt Q6XEC0); assay: biochemical; assay type: biochemical
# biochemical = assay type: biochemical
# [11] = biological target: T2, purified class A, C and D enzymes (β-lactamases) (UniProt P0AD64, L31Q/G234S/E235K, species not given); assay: biochemical; assay type: biochemical
# T2 construct: Ki (SHV-12, NCF), uM; other: purified SHV-12; nitrocefin (NCF) as reporter substrate
# T2 sequence (P0AD64 1-286 L31Q/G234S/E235K): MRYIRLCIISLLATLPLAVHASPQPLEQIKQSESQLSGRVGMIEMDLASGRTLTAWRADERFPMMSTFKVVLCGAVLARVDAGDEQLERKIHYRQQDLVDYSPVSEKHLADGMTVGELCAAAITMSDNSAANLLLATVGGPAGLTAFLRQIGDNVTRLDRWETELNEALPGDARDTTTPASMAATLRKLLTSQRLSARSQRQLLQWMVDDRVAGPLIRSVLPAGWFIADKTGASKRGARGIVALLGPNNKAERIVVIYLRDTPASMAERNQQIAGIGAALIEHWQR
# ECL1002 [12] = assay: Aztreonam potentiation (MPC@4), strain ECL1002; conditions: minimum BLI concentration inhibiting growth with aztreonam 4 μg/mL; tested up to 40 μg/mL
# PAM1154/KPC-2 = assay: Biapenem potentiation MPC64 in PAM1154/KPC-2 (efflux deficient, lacks MexAB-OprM); assay type: cell-based, Pseudomonas aeruginosa
# Protocol: (§2) Efflux of BLIs from Pseudomonas aeruginosa by the MexAB-OprM efflux pump was also evaluated. The plasmid expressing the gene encoding KPC-2 was introduced into two strains of P. aeruginosa, PAM1032 and PAM 1154 that overexpressed or lacked MexAB-OprM, respectively. […] Potency of BLIs to potentiate biapenem in these strains was determined.
# AB1053 OXA-72 = assay: Meropenem potentiation (MPC@8), strain AB1053 OXA-72; assay type: cell-based, Acinetobacter baumannii; conditions: minimum BLI concentration inhibiting growth with meropenem 8 μg/mL; tested up to 20 μg/mL
# ec302 TEM-10 [13] = assay: Aztreonam potentiation (MPC@4), strain ec302 TEM-10; conditions: minimum BLI concentration inhibiting growth with aztreonam 4 μg/mL; tested up to 40 μg/mL
# EC1010 CMY-6 [14] = assay: Aztreonam potentiation (MPC@4), strain EC1010 CMY-6
# PAM1032/KPC-2 = assay: Biapenem potentiation MPC64 in PAM1032/KPC-2 (efflux proficient, overexpresses MexAB-OprM); assay type: cell-based, Pseudomonas aeruginosa
# Protocol: as §2
# KP1010 SHV-12 [15] = assay: Aztreonam potentiation (MPC@4), strain KP1010 SHV-12
# KP1086 OXA-48 = assay: Biapenem potentiation (MPC@1), strain KP1086 OXA-48; assay type: cell-based; conditions: minimum BLI concentration inhibiting growth with biapenem 1 μg/mL; tested up to 40 μg/mL
# Protocol: as §1
# ec302 TEM-10 [16] = assay: Tigemonam potentiation (MPC@4), strain ec302 TEM-10; assay type: cell-based; conditions: minimum BLI concentration inhibiting growth with tigemonam 4 μg/mL; tested up to 40 μg/mL
# [17] = biological target: purified class A, C and D enzymes (β-lactamases) (UniProt P62593, R162S/E237K, species not given); assay: biochemical; assay type: biochemical; conditions: purified TEM-10; nitrocefin (NCF) as reporter substrate
# [18] = biological target: T3, purified class A, C and D enzymes (β-lactamases) (Acinetobacter baumannii, UniProt Q9L4P2); assay: biochemical; assay type: biochemical; conditions: purified OXA-23; nitrocefin (NCF) as reporter substrate
# T3 construct: rows headed: Ki (OXA-23, NCF), uM; other: purified OXA-23; nitrocefin (NCF) as reporter substrate
# ec308 SHV-5 [19] = assay: Tigemonam potentiation (MPC@4), strain ec308 SHV-5; assay type: cell-based; conditions: minimum BLI concentration inhibiting growth with tigemonam 4 μg/mL; tested up to 40 μg/mL
# EC1010 CMY-6 [20] = assay: Tigemonam potentiation (MPC@4), strain EC1010 CMY-6; assay type: cell-based; conditions: minimum BLI concentration inhibiting growth with tigemonam 4 μg/mL; tested up to 40 μg/mL
# ECL1002 [21] = assay: Tigemonam potentiation (MPC@4), strain ECL1002; assay type: cell-based; conditions: minimum BLI concentration inhibiting growth with tigemonam 4 μg/mL; tested up to 40 μg/mL
# KP1005 CTX-M-14 [22] = assay: Aztreonam potentiation (MPC@4), strain KP1005 CTX-M-14; conditions: minimum BLI concentration inhibiting growth with aztreonam 4 μg/mL; tested up to 40 μg/mL
# KP1010 SHV-12 [23] = assay: Tigemonam potentiation (MPC@4), strain KP1010 SHV-12; conditions: minimum BLI concentration inhibiting growth with tigemonam 4 μg/mL; tested up to 40 μg/mL
# KP1009 CTX-M-15 [24] = assay: Tigemonam potentiation (MPC@4), strain KP1009 CTX-M-15; conditions: minimum BLI concentration inhibiting growth with tigemonam 4 μg/mL; tested up to 40 μg/mL
# [25] = minimum BLI concentration inhibiting growth with aztreonam 4 μg/mL, tested up to 40 μg/mL
# Chain of purified class A, C and D enzymes (β-lactamases) (Escherichia coli, UniProt Q9L5C7) (Q9L5C7 entry or part of it): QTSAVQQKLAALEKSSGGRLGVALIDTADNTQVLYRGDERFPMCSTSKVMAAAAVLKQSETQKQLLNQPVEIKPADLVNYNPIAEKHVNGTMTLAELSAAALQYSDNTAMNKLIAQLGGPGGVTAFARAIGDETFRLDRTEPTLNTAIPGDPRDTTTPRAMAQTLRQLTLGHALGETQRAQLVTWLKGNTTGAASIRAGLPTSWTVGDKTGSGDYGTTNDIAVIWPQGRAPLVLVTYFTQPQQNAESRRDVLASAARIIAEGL
# T1 sequence (P24735 whole entry): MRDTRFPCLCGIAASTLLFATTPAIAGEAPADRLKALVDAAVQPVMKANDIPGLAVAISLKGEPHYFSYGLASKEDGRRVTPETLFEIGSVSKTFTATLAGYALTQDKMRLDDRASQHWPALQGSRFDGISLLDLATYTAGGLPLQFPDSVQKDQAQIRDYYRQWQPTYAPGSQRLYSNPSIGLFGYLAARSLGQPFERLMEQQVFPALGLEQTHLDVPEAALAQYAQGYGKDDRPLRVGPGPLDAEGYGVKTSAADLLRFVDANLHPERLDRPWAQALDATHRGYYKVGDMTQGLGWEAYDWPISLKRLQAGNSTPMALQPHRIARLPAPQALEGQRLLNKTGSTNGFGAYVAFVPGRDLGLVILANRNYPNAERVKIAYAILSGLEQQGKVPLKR
# Chain of purified class A, C and D enzymes (β-lactamases) (Enterobacter cloacae, UniProt P05364) (P05364 21-381): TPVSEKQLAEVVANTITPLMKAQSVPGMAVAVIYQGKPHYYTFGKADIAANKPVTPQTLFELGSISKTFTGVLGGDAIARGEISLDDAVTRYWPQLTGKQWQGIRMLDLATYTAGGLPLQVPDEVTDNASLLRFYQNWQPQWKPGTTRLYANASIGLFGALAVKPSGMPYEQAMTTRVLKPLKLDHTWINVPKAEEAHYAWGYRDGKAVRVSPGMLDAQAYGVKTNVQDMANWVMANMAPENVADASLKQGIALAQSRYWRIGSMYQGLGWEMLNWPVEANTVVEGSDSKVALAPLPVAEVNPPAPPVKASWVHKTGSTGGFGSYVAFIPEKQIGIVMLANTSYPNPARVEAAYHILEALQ
# T3 sequence (Q9L4P2 whole entry): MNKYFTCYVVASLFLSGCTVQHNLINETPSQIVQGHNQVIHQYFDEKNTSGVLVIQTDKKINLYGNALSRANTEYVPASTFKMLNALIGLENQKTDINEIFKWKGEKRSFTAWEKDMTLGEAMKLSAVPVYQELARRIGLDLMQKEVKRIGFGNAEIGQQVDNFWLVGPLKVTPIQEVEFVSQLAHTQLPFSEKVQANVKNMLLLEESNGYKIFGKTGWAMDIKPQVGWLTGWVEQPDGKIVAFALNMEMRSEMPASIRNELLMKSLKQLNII
compound,measurement,setting,value
"COc1ccc2c(c1C(=O)[O-])O[B-](O)(O)CC2.[Na+].[Na+] [Compound 7, DISODIUM; 4,4-DIHYDROXY-8-METHOXY-5-OXA-4-BORANUIDABICYCLO[4.4.0]DECA-1(6),7,9-TRIENE-7-CARBOXYLATE]",AZT MPC4 SHV-5 ec308,ec308 SHV-5 [1],X (X = MPC@4 ≤ 5 μg/mL)
same,TIG MPC4 CTX-M-14 KP1005,KP1005 CTX-M-14 [2],X (key: X = MPC@4 ≤ 5 μg/mL; Y = 5 μg/mL < MPC@4 ≤ 20 μg/mL; Z = MPC@4 > 20 μg/mL)
same,AZT MPC4 KPC-2 KP1004,KP1004 KPC-2 [3],X (key: X = MPC@4 ≤ 5 μg/mL; Y = 5 μg/mL < MPC@4 ≤ 20 μg/mL; Z = MPC@4 > 20 μg/mL)
same,AZT MPC4 CTX-M-15 KP1009,KP1009 CTX-M-15 [4],X (X = MPC@4 ≤ 5 μg/mL)
same,MPM MPC8 AB1054 OXA-23,AB1054 OXA-23,X (key: X = MPC@1 ≤ 5 μg/mL; Y = 5 μg/mL < MPC@1 ≤ 20 μg/mL; Z = MPC@1 > 20 μg/mL)
same,BPM MPC1 KP1004 KPC-2,KP1004 KPC-2 [5],X (X = MPC@1 ≤ 5 μg/mL)
same,"Ki (P99, NCF), uM",[6],X (key: X = Ki ≤ 0.1 μM; Y = 0.1 μM < Ki ≤ 1 μM; Z = Ki > 1 μM)
same,"Ki (CTX-M-14, NCF), uM",[7],X (key: X = Ki ≤ 0.1 μM; Y = 0.1 μM < Ki ≤ 1 μM; Z = Ki > 1 μM)
same,pKi,[8],> 7.00
same,"Ki (KPC-2, NCF), uM",[9],X (key: X = Ki ≤ 0.1 μM; Y = 0.1 μM < Ki ≤ 1 μM; Z = Ki > 1 μM)
same,"Ki (OXA-48, NCF), uM",[10],X (key: X = Ki ≤ 0.1 μM; Y = 0.1 μM < Ki ≤ 1 μM; Z = Ki > 1 μM)
same,pKi,biochemical,> 7.00
same,pKi,"[11]; read-out: Ki (SHV-12, NCF); purified SHV-12; nitrocefin (NCF) as reporter substrate",> 7.00
same,AZT MPC4 ECL1002,ECL1002 [12],X (X = MPC@4 ≤ 5 μg/mL)
same,PAM1154/KPC-2 Biapenem MPC64,PAM1154/KPC-2,0.6
same,MPM MPC8 AB1053 OXA-72,AB1053 OXA-72,X (X = MPC@1 ≤ 5 μg/mL)
same,AZT MPC4 TEM-10 ec302,ec302 TEM-10 [13],X (X = MPC@4 ≤ 5 μg/mL)
same,AZT MPC4 CMY-6 EC1010,EC1010 CMY-6 [14],X (key: X = MPC@4 ≤ 5 μg/mL; Y = 5 μg/mL < MPC@4 ≤ 20 μg/mL; Z = MPC@4 > 20 μg/mL)
same,PAM1032/KPC-2 Biapenem MPC64,PAM1032/KPC-2,2.5
same,AZT MPC4 SHV-12 KP1010,KP1010 SHV-12 [15],X (key: X = MPC@4 ≤ 5 μg/mL; Y = 5 μg/mL < MPC@4 ≤ 20 μg/mL; Z = MPC@4 > 20 μg/mL)
same,BPM MPC1 OXA-48 KP1086,KP1086 OXA-48,X (X = MPC@1 ≤ 5 μg/mL)
"Disodium; 4,4-dihydroxy-8-(1H-triazol-4-ylmethoxy)-5-oxa-4-boranuidabicyclo[4.4.0]deca-1(6),7,9-triene-7-carboxylate [Compound 24]",AZT MPC4 SHV-5 ec308,ec308 SHV-5 [1],X (X = MPC@4 ≤ 5 μg/mL)
same,TIG MPC4 CTX-M-14 KP1005,"KP1005 CTX-M-14 [2]; minimum BLI concentration inhibiting growth with tigemonam 4 μg/mL, tested up to 40 μg/mL",Z (Z = MPC@4 > 20 μg/mL)
same,AZT MPC4 KPC-2 KP1004,KP1004 KPC-2 [3]; [25],X (X = MPC@4 ≤ 5 μg/mL)
same,AZT MPC4 CTX-M-15 KP1009,KP1009 CTX-M-15 [4],X (X = MPC@4 ≤ 5 μg/mL)
same,TIG MPC4 TEM-10 ec302,ec302 TEM-10 [16],X (X = MPC@4 ≤ 5 μg/mL)
same,MPM MPC8 AB1054 OXA-23,"AB1054 OXA-23; minimum BLI concentration inhibiting growth with meropenem 8 μg/mL, tested up to 20 μg/mL",X (X = MPC@1 ≤ 5 μg/mL)
same,BPM MPC1 KP1004 KPC-2,KP1004 KPC-2 [5],X (X = MPC@1 ≤ 5 μg/mL)
same,pKi,[17],> 7.00
same,pKi,"[7]; purified CTX-M-14, nitrocefin (NCF) as reporter substrate",> 7.00
same,pKi,"[9]; purified KPC-2, nitrocefin (NCF) as reporter substrate",> 7.00
same,pKi,"[10]; purified OXA-48, nitrocefin (NCF) as reporter substrate",> 7.00
same,pKi,[18],> 7.00
same,pKi,"[11]; purified SHV-12; nitrocefin (NCF) as reporter substrate; read-out: Ki (SHV-12, NCF)",> 7.00
same,AZT MPC4 ECL1002,ECL1002 [12],X (X = MPC@4 ≤ 5 μg/mL)
same,TIG MPC4 SHV-5 ec308,ec308 SHV-5 [19],X (X = MPC@4 ≤ 5 μg/mL)
same,TIG MPC4 CMY-6 EC1010,EC1010 CMY-6 [20],X (X = MPC@4 ≤ 5 μg/mL)
same,TIG MPC4 ECL1002,ECL1002 [21],X (X = MPC@4 ≤ 5 μg/mL)
same,MPM MPC8 AB1053 OXA-72,AB1053 OXA-72,X (X = MPC@1 ≤ 5 μg/mL)
same,AZT MPC4 TEM-10 ec302,ec302 TEM-10 [13],X (X = MPC@4 ≤ 5 μg/mL)
same,AZT MPC4 CMY-6 EC1010,EC1010 CMY-6 [14]; [25],X (X = MPC@4 ≤ 5 μg/mL)
same,AZT MPC4 CTX-M-14 KP1005,KP1005 CTX-M-14 [22],X (X = MPC@4 ≤ 5 μg/mL)
same,AZT MPC4 SHV-12 KP1010,KP1010 SHV-12 [15]; [25],X (X = MPC@4 ≤ 5 μg/mL)
same,BPM MPC1 OXA-48 KP1086,KP1086 OXA-48,X (X = MPC@1 ≤ 5 μg/mL)
same,TIG MPC4 SHV-12 KP1010,KP1010 SHV-12 [23],X (X = MPC@4 ≤ 5 μg/mL)
same,TIG MPC4 CTX-M-15 KP1009,KP1009 CTX-M-15 [24],X (X = MPC@4 ≤ 5 μg/mL)

# Reference: US10618918B2, “Substituted boronic acids as antimicrobials” (priority 2015, dated 2020)
